Experimental data from ChEMBL document CHEMBL1156885, “Structure-based discovery of novel chemotypes for adenosine A(2A) receptor antagonists” (J Med Chem, 2010).
pKi: −log10 of the molar value.

Assays:
[1] = target: T1, Adenosine receptor A2a (Homo sapiens, UniProt P29274); test: Inhibition of human adenosine 2A receptor
[2] = target: T1, Adenosine receptor A2a; test: Inhibition of human adenosine 2A receptor at 2 uM
[3] = target: T1, Adenosine receptor A2a; test: Inhibition of human adenosine 2A receptor at 32 uM

T1 sequence (P29274 whole entry): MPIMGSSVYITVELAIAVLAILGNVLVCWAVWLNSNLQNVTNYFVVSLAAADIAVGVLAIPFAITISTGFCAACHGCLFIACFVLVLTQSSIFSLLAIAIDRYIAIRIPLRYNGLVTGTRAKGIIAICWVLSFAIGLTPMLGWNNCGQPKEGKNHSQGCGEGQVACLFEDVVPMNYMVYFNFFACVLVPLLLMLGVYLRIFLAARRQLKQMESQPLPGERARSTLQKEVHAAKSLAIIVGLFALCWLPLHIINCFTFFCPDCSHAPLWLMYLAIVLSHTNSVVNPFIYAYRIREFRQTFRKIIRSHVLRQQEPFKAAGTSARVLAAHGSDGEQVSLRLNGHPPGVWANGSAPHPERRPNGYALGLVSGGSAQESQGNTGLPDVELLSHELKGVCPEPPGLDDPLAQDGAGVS

| Structure (SMILES) | pKi [1] | also measured |
| --- | --- | --- |
| Cc1cc2oc(N)c(C=O)c(=O)c2cc1C | < 4.00 | – |
| Nc1ncnc2[nH]c(SCCC(=O)O)nc12 | < 4.00 | – |
| Cn1c(=O)cc2c3c(c(N)ccc31)C(=O)c1ccccc1-2 | 6.19 | – |
| Cc1nc2ccccc2cc1C(=O)OCC(=O)c1c(N)n(C)c(=O)[nH]c1=O | < 4.00 | – |
| Cc1ccc(N2C(=O)c3cccc(N)c3C2=O)cc1 | 5.54 | – |
| Nc1c(Sc2ccccc2)cc(Sc2ccccc2)c2c1C(=O)c1ccccc1C2=O | 5.72 | – |
| Cc1ccc(Nc2nc(N)nc(CSC(C)C(=O)N3CCCCCC3)n2)cc1 (stereo unspecified) | 4.48 | – |
| NC1=C(Nc2cccc(C(F)(F)F)c2)C(=O)c2ccccc2C1=O | 6.25 | – |
| Cc1ccc(C(=O)CSc2nc(N)c(C#N)c(-c3cccs3)c2C#N)c(C)c1 | < 4.00 | – |
| COc1ccc(Nc2nc(N)nc(CSc3nnc(N)s3)n2)cc1 | 4.85 | – |
| Cc1ccc(Nc2nc(N)nc(CSCCO)n2)cc1 | 4.77 | – |
| Cc1ccc2oc(=N)c3c(N)nc(-c4ccc5c(c4)OCO5)cc3c2c1 | < 4.00 | – |
| N#CC1=C(NC(=O)CSc2ncc(C#N)c(N)n2)SC2CCCCC12 (stereo unspecified) | 5.21 | – |
| COCCOC(=O)c1sc(N)c(C#N)c1C | 4.77 | – |
| Nc1ccc(N)c2c1C(=O)c1ccccc1C2=O | 6.49 | – |
| CCOC(=O)c1cnc(SCC(=O)O)nc1N | < 4.00 | – |

| Structure (SMILES) | pKi [1] | also measured |
| --- | --- | --- |
| Nc1ncnc2sc3c(c12)CCN(C(=O)CN1CSCC1=O)C3 | < 4.00 | – |
| Nc1c(/C=N/c2ccccc2)ccc2c1C(=O)c1ccccc1C2=O | < 4.00 | – |
| Cc1ccc(Nc2nc(N)nc(CN3C(=O)NC4(CCCCC4)C3=O)n2)cc1 | 5.55 | – |
| CC(=O)Oc1cccc(-c2nc(C(N)=O)c(N)o2)c1 | 4.44 | – |
| COc1ccc(N)c2c1C(=O)c1ccccc1C2=O | 6.28 | – |
| Nc1nc(SCCCCC(=O)O)c2[nH]cnc2n1 | < 4.00 | – |
| Nc1c(C(=O)Nc2ccc(F)cc2)sc2nc3c(cc12)N1CCC3CC1 | < 4.00 | – |
| CN(C(=O)CSc1nc(N)nn1-c1ccccc1)c1ccccc1 | < 4.00 | – |
| Cc1cccc(NC2=C(N)C(=O)c3ccccc3C2=O)c1 | 6.10 | – |
| Nc1nc(CSc2nnc(N)s2)nc(Nc2ccc(F)cc2)n1 | 4.89 | – |
| COc1ccc(-n2ccnc2SCC(=O)c2c(N)n(C3CC3)c(=O)[nH]c2=O)cc1 | 4.60 | – |
| COC(=O)c1c(N)oc2c(-c3ccc(C)cc3)c3c(C(=O)OC)c(N)oc3cc12 | < 4.00 | – |
| N#Cc1c(N)nc2c(oc3ccccc32)c1-c1ccccc1 | 7.22 | inhibition [3]: 91% |
| CCOC(=O)c1cnc(SCCC(N)=O)nc1N | < 4.00 | – |
| Nc1c(Oc2ccccc2)ccc2c1C(=O)c1ccccc1C2=O | 6.00 | – |

Continued, in another order:

| pKi [1] | Structure (SMILES) | also measured |
| --- | --- | --- |
| 5.57 | CN1CCc2nc3sc(C(=O)Nc4ccc(Cl)cc4)c(N)c3cc2C1 | – |
| < 4.00 | Nc1c(C(=O)Nc2ccccc2Cl)sc2ncccc12 | – |
| 6.20 | N#Cc1c(N)nc2c(C(N)=O)c(Nc3ccccc3)sc2c1-c1ccccc1 | – |
| 5.89 | CCCc1ccc2c(N)c(C(=O)c3ccccc3)sc2n1 | – |
| < 4.00 | CCOC(=O)c1cc(-c2ccc(Br)cc2)cc2c(N)sc(Br)c12 | – |
| 7.49 | COc1ccc(Cl)cc1Nc1nc(N)nc(-c2oc3ccccc3c2C)n1 | inhibition [2]: 80% |
| 5.66 | Nc1c(C(=O)c2ccccc2)oc2ccc(Br)cc12 | – |
| 6.00 | Nc1c(C(=O)Nc2nccs2)sc2nc3c(cc12)C(=O)CCC3 | – |
| 5.22 | Cc1ccc(Nc2nc(N)nc(CSC(C)C(=O)NCc3ccccc3Cl)n2)cc1 (stereo unspecified) | – |
| 6.60 | Nc1ccc(Cl)c2c1C(=O)c1ccccc1C2=O | – |
| 5.16 | Nc1c(C(=O)Nc2ccc(Cl)cc2)sc2ncccc12 | – |
| 6.52 | Nc1c(C(=O)Nc2ccccc2F)sc2nc3c(cc12)C(=O)CCC3 | – |
| 4.82 | Nc1c(C(=O)Nc2ccc([N+](=O)[O-])cc2)sc2nc3c(cc12)CCCC3 | – |
| 4.39 | CC(=O)c1snc(Nc2cc(Cl)ccc2F)c1N | – |
| < 4.00 | Nc1ccc(-c2nc3c(N)cccc3[nH]2)cc1 | – |
| < 4.00 | Nc1nc(CSc2nnc3ccccn23)nc(Nc2ccc(F)cc2)n1 | – |
| < 4.00 | CC(=O)c1ccc(NC(=O)c2sc3nc4c(cc3c2N)CCCC4)cc1 | – |
| < 4.00 | Cc1ccc(Nc2nc(N)nc(CSCC(=O)NC3CC3)n2)cc1 | – |
| 5.04 | CCc1nc2sc(C(=O)c3cccc(Cl)c3)c(N)c2cc1C | – |
| < 4.00 | Cc1ccccc1NC(=O)CSCc1nc(N)nc(Nc2ccccc2C)n1 | – |
| < 4.00 | Nc1c(Nc2ccccc2C(=O)O)c2ccccc2oc1=O | – |
| 5.49 | Nc1cccc2c1C(=O)c1ccccc1C2=O | – |
| < 4.00 | CC(Sc1nc(N)c(C(=O)Nc2ccccc2)cc1C#N)C(=O)NCc1ccccc1Cl (stereo unspecified) | – |
